From US12582641B2, “Sulfur-containing compound based on glutarimide skeleton and application thereof” (SHANGHAITECH UNIVERSITY, priority 2019, dated 2026)

Tests used:
MM.1S cells = experiment: Proliferation inhibition (IC50) in MM.1S cells, cell viability assay; settings: Homo sapiens, MM1.S, 72 h, read-out: IC50 (nM), proliferation inhibitory activity of MM.1S cells (half inhibitory concentration)
ALCL cell line SR = experiment: Proliferation inhibition (IC50) in lymphoma cell line SR, cell viability assay; type: cell-based; settings: 72 h, SR cells, WST reagent
Description: (§1) We tested the anti-proliferation activities of the compounds of the present invention in ALCL cell line SR and Mantle cell lymphoma Mino (which overexpressed IKZF1/3, but were not sensitive to immunomodulatory drugs) through a dose-dependent manner. […] The experiment was repeated more than three times.

[1] = system: Mantle cell lymphoma Mino; experiment: Proliferation inhibition (IC50) in lymphoma cell line Mino, cell viability assay; type: cell-based; settings: Mino cells; for IC50: 72 h, WST reagent
Description: as §1

| Compound | IC50 (MM.1S cells) | further results |
| --- | --- | --- |
| O=C1CCC(N2Cc3c(SCCCCCCCNC45CC6CC(CC(C6)C4)C5)cccc3C2=O)C(=O)N1 (stereo not drawn) [SIAIS1220155, 3-(4-((7-((adamantan-1-yl)amino)heptyl)thio)-1-oxoisoindolin-2-yl)piperidine-2,6-dione] | 0.02 nM | IC50 (ALCL cell line SR; Homo sapiens, SR): 7.42 nM; IC50 ([1]; Homo sapiens, MINO): 0.776 nM |
| Nc1cccc2c1C(=O)N(C1CCC(=O)NC1=O)C2=O (stereo not drawn) [pomalidomide, reference compound] | 9.4 ± 1.3 nM | IC50 ([1]; Homo sapiens, MINO): 48 nM; IC50 [1]: 48 nM |
| O=C1CCC(N2Cc3c(SCCCCCCCSC45CC6CC(CC(C6)C4)C5)cccc3C2=O)C(=O)N1 (stereo not drawn) [SIAIS1221025, 3-(4-((7-(adamantan-1-ylthio)heptyl)thio)-1-oxoisoindolin-2-yl)piperidine-2,6-dione] | 0.061 nM | – |
| CN(C)CCOCCOCCSc1cccc2c1CN(C1CCC(=O)NC1=O)C2=O (stereo not drawn) [SIAIS1216195, 3-(4-((2-(2-(2-(dimethylamino)ethoxy)ethoxy)ethyl)thio)-1-oxoisoindolin-2-yl)piperidine-2,6-dione] | 4.96 ± 0.54 nM | – |
| O=C1CCC(N2C(=O)c3cccc(SCCCCCCCNC4CC5(CCC5)C4)c3C2=O)C(=O)N1 (stereo not drawn) [SIAIS1224015, 2-(2,6-dioxopiperidin-3-yl)-4-((7-(spiro[3.3]heptan-2-ylamino)heptyl)thio)isoindoline-1,3-dione] | 0.691 nM | – |
| O=C1CCC(N2Cc3c(SCCCCCCCN4Cc5ccccc5C4)cccc3C2=O)C(=O)N1 (stereo not drawn) [SIAIS1224033, 3-(4-((7-(isoindolin-2-yl)heptyl)thio)-1-oxoisoindolin-2-yl)piperidine-2,6-dione] | 0.082 nM | – |
| CC1CC(C)CN(Cc2csc(CSc3cccc4c3CN(C3CCC(=O)NC3=O)C4=O)n2)C1 (stereo not drawn) [SIAIS313186, 3-(4-(((4-((3,5-dimethylpiperidin-1-yl)methyl)thiazol-2-yl)methyl)thio)-1-oxoisoindolin-2-yl)piperidine-2,6-dione] | 1.63 ± 0.61 nM | – |
| O=C1CCC(N2Cc3c(SCCc4ccc(CCNC56CC7CC(CC(C7)C5)C6)cc4)cccc3C2=O)C(=O)N1 (stereo not drawn) [SIAIS1224121, 3-(4-((4-(2-((adamantan-1-yl)amino)ethyl)phenethyl)thio)-1-oxoisoindolin-2-yl)piperidine-2,6-dione] | 0.48 ± 0.05 nM | – |
| O=C1CCC(N2Cc3c(SCCCCCCCN4C[C@H]5CCCC[C@H]5C4)cccc3C2=O)C(=O)N1 (stereo partly drawn) [SIAIS1222107, 3-(4-((7-((3aR,7aS)-hexahydro-1H-isoindol-2(3H)-yl)heptyl)thio)-1-oxoisoindolin-2-yl)piperidine-2,6-dione] | 0.05 nM | – |
| O=C1CCC(N2Cc3c(SCCCCCCCCN4CCN(CCCCCCCCSc5cccc6c5CN(C5CCC(=O)NC5=O)C6=O)CC4)cccc3C2=O)C(=O)N1 (stereo not drawn) [SIAIS1220061, 3,3′-(((piperazine-1,4-diylbis(octane-8,1-diyl))bis(sulfanediyl))bis(1-oxoisoindoline-4,2-diyl))bis(piperidine-2,6-dione)] | 0.49 nM | – |

Further lines, with some results ahead:

| IC50 (MM.1S cells) | Compound | further results |
| --- | --- | --- |
| 0.09 nM | O=C1CCC(N2Cc3c(SCc4ccc(CN5CCCCC5)cc4)cccc3C2=O)C(=O)N1 (stereo not drawn) [SIAIS1220165, 3-(1-oxo-4-((4-(piperidin-1-ylmethyl)benzyl)thio)isoindolin-2-yl)piperidine-2,6-dione] | IC50 (ALCL cell line SR; Homo sapiens, SR): 1.89 nM; IC50 ([1]; Homo sapiens, MINO): 5.83 nM |
| 0.018 ± 0.005 nM | O=C1CCC(N2Cc3c(SCc4ccc(CCNC56CC7CC(CC(C7)C5)C6)cc4)cccc3C2=O)C(=O)N1 (stereo not drawn) [SIAIS287128, 3-(4-((4-(2-(adamantan-1-ylamino)ethyl)benzyl)thio)-1-oxoisoindolin-2-yl)piperidine-2,6-dione] | IC50 (ALCL cell line SR; Homo sapiens, SR): ~0.3 nM; IC50 (ALCL cell line SR): 0.297 nM; IC50 ([1]; Homo sapiens, MINO): ~0.29 nM; IC50 [1]: 0.289 nM; IC50 times lower than Pomalidomide ([1]; versus pomalidomide IC50 48 nM): 165 times |
| 0.03 ± 0.004 nM | O=C1CCC(N2Cc3c(SCc4ccc(CN5CCCCCCC5)cc4)cccc3C2=O)C(=O)N1 (stereo not drawn) [SIAIS1227109, 3-(4-((4-(azocan-1-ylmethyl)benzyl)thio)-1-oxoisoindolin-2-yl)piperidine-2,6-dione] | – |
| 0.144 nM | O=C1CCC(N2Cc3c(SCc4ccc(CN5CCSCC5)cc4)cccc3C2=O)C(=O)N1 (stereo not drawn) [SIAIS1224089, 3-(1-oxo-4-((4-(thiomorpholinomethyl)benzyl)thio)isoindolin-2-yl)piperidine-2,6-dione] | – |
| 0.252 nM | CC(C)N(Cc1ccc(CSc2cccc3c2CN(C2CCC(=O)NC2=O)C3=O)cc1)C(C)C (stereo not drawn) [SIAIS1227057, 3-(4-((4-((diisopropylamino)methyl)benzyl)thio)-1-oxoisoindolin-2-yl)piperidine-2,6-dione] | – |
| 0.2 nM | O=C1CCC(N2Cc3c(SCc4ccc(CN5CCC6(CCCCC6)CC5)cc4)cccc3C2=O)C(=O)N1 (stereo not drawn) [SIAIS1227119, 3-(4-((4-((3-azaspiro[5.5]undecan-3-yl)methyl)benzyl)thio)-1-oxoisoindolin-2-yl)piperidine-2,6-dione] | – |
